Test [1] concerns the target T1, Human recombinant cathepsin K (Homo sapiens, UniProt P43235).
T1 sequence (P43235 115-329): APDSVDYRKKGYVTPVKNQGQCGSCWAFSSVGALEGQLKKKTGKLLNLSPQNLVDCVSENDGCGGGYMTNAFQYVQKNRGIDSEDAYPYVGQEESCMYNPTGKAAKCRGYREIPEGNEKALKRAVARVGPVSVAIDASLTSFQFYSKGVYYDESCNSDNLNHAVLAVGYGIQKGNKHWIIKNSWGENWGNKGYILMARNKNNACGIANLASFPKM
The experiment in a line: In vitro cathepsin Ki inhibition measurement, cathepsin K. The note with it: for Ki: human cathepsin K, steady-state, competitive model, read-out: In vitro Ki (nM) vs Cath K. In kind it is biochemical. The method, then: Stock solutions of substrate or inhibitor were made up to 10 mM in 100% dimethylsulfoxide (DMSO) (Rathburns, Glasgow, U.K.) and diluted as appropriately required. In all cases the DMSO concentration in the assays was maintained at less than 1% (vol./vol.). The equilibrium inhibition constants (Ki^ss) for each compound were measured under steady-state conditions monitoring enzyme activity as a function of inhibitor concentration. […] B. […] The apparent inhibition constant (Ki) for each compound was determined on the basis that inhibition was reversible and occurred by a pure-competitive mechanism. […] F. Trends Biochem. […] Morrison, J. F. Biochim. Biophys. […] Curves were fitted by non-linear regression analysis (Prism) using a fixed value for the enzyme concentration.

Test [2] concerns the target T2, Human recombinant cathepsin S (Homo sapiens, UniProt P25774).
T2 construct: purchased Merck 219343; host or cells: E. coli
The experiment in a line: In vitro cathepsin Ki inhibition measurement, cathepsin S. It is filed as biochemical. How it is done: Stock solutions of substrate or inhibitor were made up to 10 mM in 100% dimethylsulfoxide (DMSO) (Rathburns, Glasgow, U.K.) and diluted as appropriately required. In all cases the DMSO concentration in the assays was maintained at less than 1% (vol./vol.). The equilibrium inhibition constants (Ki^ss) for each compound were measured under steady-state conditions monitoring enzyme activity as a function of inhibitor concentration. […] The apparent inhibition constant (Ki) for each compound was determined on the basis that inhibition was reversible and occurred by a pure-competitive mechanism. […] Biophys. […] Curves were fitted by non-linear regression analysis (Prism) using a fixed value for the enzyme concentration.

T2 sequence (P25774 115-331): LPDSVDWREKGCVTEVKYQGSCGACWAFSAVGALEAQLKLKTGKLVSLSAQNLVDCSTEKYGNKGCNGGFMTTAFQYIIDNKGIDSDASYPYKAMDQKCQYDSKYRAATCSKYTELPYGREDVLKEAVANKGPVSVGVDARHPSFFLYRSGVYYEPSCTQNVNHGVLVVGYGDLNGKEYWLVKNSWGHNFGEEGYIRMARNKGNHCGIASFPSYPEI

`O=C(N[C@H](C(=O)N1CC[C@H]2OCC(=O)[C@H]21)C1CCCCC1)c1cccc(-n2cnnn2)c1` [Compound 3]: in test [1], the Ki stood at 560 nM.
Take `O=C(N[C@H](C(=O)N1C[C@H](F)[C@H]2OCC(=O)[C@H]21)C1CCCCC1)c1ccccc1` [Compound 2]: the Ki in test [1] is 95 nM. Also, in test [1] (relative to Compound 1), the “fold improvement in in vitro potency against human cathepsin K” value was found to be 3.2 fold. In addition, in test [2] (relative to Compound 1), the “fold improvement in in vitro potency against human cathepsin S” value is 3.8 fold.
Take `O=C(N[C@H](C(=O)N1C[C@H](Cl)[C@H]2OCC(=O)[C@H]21)C1CCCCC1)c1cccc(-n2ccnc2)c1` [EXAMPLE 3, N—((S)-2-((3aS,6S,6aS)-6-chloro-3-oxodihydro-2H-furo[3,2-b]pyrrol-4(5H,6H,6aH)-yl)-1-cyclohexyl-2-oxoethyl)-3-(1H-imidazol-1-yl)benzamide]: the Ki in test [1] was found to be 23 nM.
`O=C(N[C@@H](CC1CCCCC1)C(=O)N1CC[C@H]2OCC(=O)[C@H]21)c1ccccc1` [Prior art compound 38, reference compound]: the Ki in test [1] was > 4000 nM.
For the molecule `O=C(N[C@H](C(=O)N1C[C@H](F)[C@H]2OCC(=O)[C@H]21)C1CCCCC1)c1cccc(-n2cnnn2)c1` [Compound 4], the Ki in test [1] was determined as 340 nM. For the same molecule, the “fold improvement in in vitro potency against human cathepsin K” value in test [1] (relative to compound 3) was found to be 1.7 fold. Further, in test [2] (relative to compound 3), the “fold improvement in in vitro potency against human cathepsin S” value was determined as 3.4 fold.
Regarding `O=C(N[C@H](C(=O)N1C[C@H](Cl)[C@H]2OCC(=O)[C@H]21)C1CCCCC1)c1cccc(-n2cnnn2)c1` [EXAMPLE 2, N—((S)-2-((3aS,6S,6aS)-6-chloro-3-oxodihydro-2H-furo[3,2-b]pyrrol-4(5H,6H,6aH)-yl)-1-cyclohexyl-2-oxoethyl)-3-(1H-tetrazol-1-yl)benzamide], the Ki in test [1] was determined as 27 nM. For the same molecule, the “fold improvement in in vitro potency against human cathepsin K” value in test [1] (relative to compound 3) is 20.5 fold. Besides, in test [2] (relative to compound 3), the “fold improvement in in vitro potency against human cathepsin S” value is listed as 47 fold.
In the case of `O=C(N[C@H](C(=O)N1C[C@@H](Cl)[C@H]2OCC(=O)[C@H]21)C1CCCCC1)c1cccc(-n2ccnc2)c1` [Compound 5], the Ki in test [1] turned out to be 230 nM.
On the same count and under the same terms, under `O=C(N[C@H](C(=O)N1C[C@H](Cl)[C@H]2OCC(=O)[C@H]21)C1CCCCC1)c1ccccc1` [EXAMPLE 1, N—((S)-2-((3aS,6S,6aS)-6-chloro-3-oxodihydro-2H-furo[3,2-b]pyrrol-4(5H,6H,6aH)-yl)-1-cyclohexyl-2-oxoethyl)benzamide] stands 35 nM.

What is called Ki is the equilibrium dissociation constant of an inhibitor or competing ligand from its target.

Values taken from patent US8008290B2, “Compounds” (priority 2009, dated 2011).
